Measured values published in US20060270643A1, “Hyfroxyflutamide induced pathways related to androgen receptor negative prostate cancer cells” (priority 2002, published 2006).
Entries after “also recorded” stand apart in the source; their conditions may differ.

Columns and labels:
cyclin D1 = assay: Western blot of cyclin D1 and cell cycle related gene products in DU145 cells; type: cell-based, human
Procedure: (§1) 11. […] (A) DU145 cells were treated with HF (1 μM), or EGF (10 ng/ml), or ethanol vehicle for 12 hours after the serum starvation. Cells were lysed and blotted with anti-cyclin D1 antibody. (B) DU145 cells were serum starved for 24 hours and then co-transfected DN Ras or DN Raf together with […] Luc reporter with SuperFect (Qiagen). After 4 hours, the medium was changed to normal medium (10% serum) for 18 hours and then changed to serum starvation condition for another 24 hours and then treated with HF, EGF, or ethanol vehicle control. Cells were lysed for luciferase activity analysis.

[1] = system: cyclin D1 promoter (−1745D1-Luc); assay: Cyclin D1 promoter luciferase reporter assay in DU145 cells; type: cell-based, human; conditions: 10^−6 M HF or 30 ng/ml EGF
Procedure: as §1
197. DU145 cells were obtained from American Type Culture Collection and cultured in Dubecco's modified Eagles's medium (DMEM) supplemented with 10% fetal bovine serum (FBS). Cells (1×10^5) were seeded in 35 mm plates and transfected with the SuperFect transfection reagent (Qiagen, Chatworth, Calif.). After 4 hours the media were changed to serum-free DMEM media for 24 hours. Thereafter, the cells were treated with HF, EGF, and vehicle for 18 hours and then lysed for luciferase assay. Luciferase activity was normalized for taansfection efficiency using pRL-TK as an internal control. Luciferase assays were performed using dual-luciferase reporter system (Promega, Madison, Wis.).

[2] = system: MAP kinase in CWR22 cells; assay: Immunoblot of phospho-ERK1/2 in CWR22 cells; type: cell-based, human; conditions: 15 mins
DU145 cells = assay: Cell proliferation assay (hemacytometer counting); type: cell-based, human
Procedure: 10. […] (A) DU145 cells were seeded in 10% FBS DMEM medium and 24 hours later cells were changed to serum free medium. 48 hours later changed the medium to 0.5% FBS medium and treated with ethanol, HF, or EGF. Every 24 hours, the cells were counted by hemacytometer. […]. […] (B) DU145 cells were seeded and transfected with anti-sense oligonucleotide of Ras (IRIS 2503: 5′-[…]-3′), Raf (IIUS: 5132:5′-[…]-3′) and HIV (5′-[…]-3′) (Chen, G., Oh, S., Monia B. P., and Stacey, D. W., J. Biol. Chem., 271: 28259-28265, 1996, Monia, B. P., et al., Proc. Natl. Acad. Sci. USA, 93: 15481-15484, 1996.) by SuperFect (Qiagen). 24 hour after serum starvation, we changed the cells to medium containing 0.5% FBS, and treated the cells as described in A. Cells were counted by hemacytometer every 24 hours. The cell lysate were blotted with anti-H-Ras and Raf antibodies and β-actin was blotted for loading control.
199. DU145 cells were seeded at 2×10^4/ml on 35 mm plates and allowed to attach overnight. Cells were kept in serum-free DMEM medium for 24 hours, and then media were replaced with DMEM-0.5% FBS and treated as indicated. Cells were trypsinized and counted with a hemacytometer at different times after treatments. For the antisense oligonuleotide experiments, cells were incubated with a fixed ratio of oligonucleotide versus SuperFect (2.5 μl of SuperFect per 100 nM oligo) for 4 hours and then the oligo-containing medium was replaced with DMEM-0.5% FBS. Cells were trypsinized and counted by hemacytometer at indicated times.

AR = target: T1, AR (Homo sapiens, UniProt P10275); assay: AR/DHT mediated PSA transcriptional activity (luciferase reporter) in DU145 cells; type: cell-based; conditions: 1 μM of HF, 1 nM DHT, DU145 cells cotransfected with AR
T1 sequence (P10275 1-920): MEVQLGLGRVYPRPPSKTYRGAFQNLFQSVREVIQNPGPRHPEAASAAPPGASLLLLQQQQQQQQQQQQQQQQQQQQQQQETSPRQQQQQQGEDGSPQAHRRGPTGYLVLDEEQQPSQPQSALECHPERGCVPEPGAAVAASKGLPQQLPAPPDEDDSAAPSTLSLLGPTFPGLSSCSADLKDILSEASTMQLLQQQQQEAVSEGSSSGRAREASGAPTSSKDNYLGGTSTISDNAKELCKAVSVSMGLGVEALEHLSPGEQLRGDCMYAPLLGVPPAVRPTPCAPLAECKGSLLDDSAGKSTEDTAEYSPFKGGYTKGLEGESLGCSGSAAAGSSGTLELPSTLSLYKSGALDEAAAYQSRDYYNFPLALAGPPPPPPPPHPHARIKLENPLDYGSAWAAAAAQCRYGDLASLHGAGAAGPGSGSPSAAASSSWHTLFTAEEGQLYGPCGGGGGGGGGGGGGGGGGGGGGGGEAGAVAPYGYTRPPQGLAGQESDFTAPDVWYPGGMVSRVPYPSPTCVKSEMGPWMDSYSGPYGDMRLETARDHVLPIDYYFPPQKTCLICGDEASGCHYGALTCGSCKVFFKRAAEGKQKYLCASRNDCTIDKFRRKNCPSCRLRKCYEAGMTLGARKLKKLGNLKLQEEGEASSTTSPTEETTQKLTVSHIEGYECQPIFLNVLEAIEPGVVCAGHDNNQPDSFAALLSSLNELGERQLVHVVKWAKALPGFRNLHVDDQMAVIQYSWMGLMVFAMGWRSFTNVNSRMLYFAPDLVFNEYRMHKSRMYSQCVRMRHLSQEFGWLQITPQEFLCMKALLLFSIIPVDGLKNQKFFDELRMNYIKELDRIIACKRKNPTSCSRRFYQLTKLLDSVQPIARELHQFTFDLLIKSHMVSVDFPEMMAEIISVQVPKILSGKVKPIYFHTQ

DHT induced PSA-Luc activity (AR): represses DHT induced PSA-Luc activity
Structure (SMILES): CC(C)(O)C(=O)Nc1ccc([N+](=O)[O-])c(C(F)(F)F)c1 [HF, hydroxyflutamide]
cyclin D1 expression (cyclin D1; HF (1 μM) or EGF (10 ng/ml) for 12 hours after serum starvation): induced
other cell cycle related gene products (p27, p21, Ki67, PCNA) (cyclin D1; after HF- or EGF-treatment): no significant change
induction of cyclin D1 promoter (−1745D1-Luc) activity [1]: about 2 fold
MAP kinase activation [2]: activates MAP kinase
cell proliferation (DU145 cells; cells maintained in 10% FBS medium (data not shown)): no significant stimulation of cell proliferation
cell proliferation (DU145 cells; low serum (0.5% FBS) after serum starvation): stimulate the DU 145 cell growth significant; also recorded: can promote cell proliferation
